Measured values taken from patent publication US20060045953A1 (priority 2004, published 2006).

target: T1, hT1R1/hT1R3 umami receptor (Homo sapiens, UniProt Q7RTX0+Q7RTX1); assay: In vitro hT1R1/hT1R3 umami taste receptor activation assay (FLIPR, dose response); assay type: cell-based; conditions: Table C, Umami Ureas; read-out: Umami EC50
T1 construct: expressed in transfected cells; host or cells: HEK293 derivative stably expressing Gα15, clone I-17, expression induced with mifepristone
T1 sequence (Q7RTX1 21-841): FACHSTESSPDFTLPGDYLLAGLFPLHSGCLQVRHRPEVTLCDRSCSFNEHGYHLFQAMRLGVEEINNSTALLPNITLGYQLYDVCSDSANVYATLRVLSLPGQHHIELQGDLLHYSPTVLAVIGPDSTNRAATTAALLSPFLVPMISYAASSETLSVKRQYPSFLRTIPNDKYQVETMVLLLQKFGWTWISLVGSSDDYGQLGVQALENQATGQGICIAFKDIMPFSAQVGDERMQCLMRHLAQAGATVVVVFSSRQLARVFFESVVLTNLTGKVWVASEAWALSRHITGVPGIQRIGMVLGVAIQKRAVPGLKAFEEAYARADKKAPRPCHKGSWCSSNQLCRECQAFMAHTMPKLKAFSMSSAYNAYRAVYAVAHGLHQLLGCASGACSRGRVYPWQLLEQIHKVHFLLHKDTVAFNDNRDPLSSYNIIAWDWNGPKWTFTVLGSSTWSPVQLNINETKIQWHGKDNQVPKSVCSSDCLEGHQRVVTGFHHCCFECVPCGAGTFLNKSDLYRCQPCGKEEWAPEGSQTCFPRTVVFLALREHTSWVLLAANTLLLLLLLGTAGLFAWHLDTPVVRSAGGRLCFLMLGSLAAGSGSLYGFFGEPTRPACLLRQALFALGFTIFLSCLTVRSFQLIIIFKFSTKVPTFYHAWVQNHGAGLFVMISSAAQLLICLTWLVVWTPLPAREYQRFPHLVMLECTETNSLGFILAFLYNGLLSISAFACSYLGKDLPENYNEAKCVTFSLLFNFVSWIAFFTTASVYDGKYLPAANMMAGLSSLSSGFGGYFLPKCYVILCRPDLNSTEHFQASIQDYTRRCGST
T1 sequence (Q7RTX0 21-852): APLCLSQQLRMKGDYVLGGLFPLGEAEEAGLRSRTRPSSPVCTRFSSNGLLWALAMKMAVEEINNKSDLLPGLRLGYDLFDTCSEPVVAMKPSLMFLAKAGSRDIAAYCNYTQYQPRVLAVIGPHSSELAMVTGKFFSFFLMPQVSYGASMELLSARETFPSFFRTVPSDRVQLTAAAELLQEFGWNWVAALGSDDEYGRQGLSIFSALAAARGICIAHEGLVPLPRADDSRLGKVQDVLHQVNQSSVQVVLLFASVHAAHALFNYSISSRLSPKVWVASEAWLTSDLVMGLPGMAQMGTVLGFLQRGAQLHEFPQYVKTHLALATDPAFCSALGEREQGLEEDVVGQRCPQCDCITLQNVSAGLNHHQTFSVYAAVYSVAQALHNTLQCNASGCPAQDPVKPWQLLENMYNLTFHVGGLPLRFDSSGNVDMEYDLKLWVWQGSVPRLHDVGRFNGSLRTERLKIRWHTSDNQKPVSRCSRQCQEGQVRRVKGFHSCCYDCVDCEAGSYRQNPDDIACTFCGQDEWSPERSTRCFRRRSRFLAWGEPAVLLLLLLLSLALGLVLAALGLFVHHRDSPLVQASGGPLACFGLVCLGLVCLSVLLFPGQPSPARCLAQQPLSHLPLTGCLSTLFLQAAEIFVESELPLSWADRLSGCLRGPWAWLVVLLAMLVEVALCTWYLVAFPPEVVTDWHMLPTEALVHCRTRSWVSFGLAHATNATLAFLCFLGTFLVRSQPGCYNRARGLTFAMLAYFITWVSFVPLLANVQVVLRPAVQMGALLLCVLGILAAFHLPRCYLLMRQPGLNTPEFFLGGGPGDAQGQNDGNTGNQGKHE

EC50 [nM] | Compound
370 | CCCC(CCC)NC(=O)Nc1ccccc1Cl [Example C1, 1-(2-chlorophenyl)-3-(heptan-4-yl)urea]
490 | CCC(NC(=O)Nc1ccc(Cl)cc1Cl)c1ccccc1 (stereo not drawn) [Example C2, 1-(2,4-dichlorophenyl)-3-(1-phenylpropyl)urea]
520 | CC1CCCCC1NC(=O)Nc1ccccc1Cl (stereo not drawn) [Example C3, 1-(2-chlorophenyl)-3-(2-methylcyclohexyl)urea]
790 | CCCC(CCC)NC(=O)Nc1ccccc1F [Example C4, 1-(2-fluorophenyl)-3-(heptan-4-yl)urea]
840 | CC(NC(=O)Nc1ccccc1Cl)C1CCCCC1 (stereo not drawn) [Example C5, 1-(2-chlorophenyl)-3-(1-cyclohexylethyl)urea]
980 | CC(C)c1ccc(NC(=O)NCCc2ccccn2)cc1 [Example C6, 1-(4-isopropylphenyl)-3-(2-(pyridin-2-yl)ethyl)urea]
990 | O=C(Nc1ccccc1Cl)NC1CCCc2ccccc21 (stereo not drawn) [Example C7, 1-(2-chlorophenyl)-3-(1,2,3,4-tetrahydronaphthalen-1-yl)urea]
1410 | COc1ccc(NC(=O)NC2CCCCC2C)c(OC)c1 (stereo not drawn) [Example C8, 1-(2,4-dimethoxyphenyl)-3-(2-methylcyclohexyl)urea]
1420 | CCCC(CCC)NC(=O)Nc1ccccc1CC [Example C9, 1-(2-ethylphenyl)-3-(heptan-4-yl)urea]
1510 | CCOc1ccc(NC(=O)NC2CCCCC2C)cc1 (stereo not drawn) [Example C10, 1-(4-ethoxyphenyl)-3-(2-methylcyclohexyl)urea]
1650 | O=C(Nc1ccccc1F)NC1CCCc2ccccc21 (stereo not drawn) [Example C11, 1-(2-fluorophenyl)-3-(1,2,3,4-tetrahydronaphthalen-1-yl)urea]
1670 | COc1ccccc1NC(=O)NC1CCCCC1C (stereo not drawn) [Example C12, 1-(2-methoxyphenyl)-3-(2-methylcyclohexyl)urea]
1720 | CCC(CC)NC(=O)Nc1ccc(OC)cc1OC [Example C13, 1-(2,4-dimethoxyphenyl)-3-(pentan-3-yl)urea]
140 | CSc1ccccc1NC(=O)NC(C(C)C)C(C)C [Example C14, 1-(2,4-dimethylpentan-3-yl)-3-(2-(methylthio)phenyl)urea]
160 | CCCC(CCC)NC(=O)Nc1ccc(C)cc1OC [Example C15, 1-(heptan-4-yl)-3-(2-methoxy-4-methylphenyl)urea]
210 | COc1cc(C)ccc1NC(=O)NC(C(C)C)C(C)C [Example C16, 1-(2,4-dimethylpentan-3-yl)-3-(2-methoxy-4-methylphenyl)urea]
240 | COc1ccccc1NC(=O)NC(C(C)C)C(C)C [Example C17, 1-(2,4-dimethylpentan-3-yl)-3-(2-methoxyphenyl)urea]
260 | CCCC(CCC)NC(=O)Nc1ccccc1SC [Example C18, 1-(heptan-4-yl)-3-(2-(methylthio)phenyl)urea]
320 | CC(C)C(NC(=O)Nc1ccc2c(c1)OCO2)C(C)C [Example C19, 1-(benzo[d][1,3]dioxol-5-yl)-3-(2,4-dimethylpentan-3-yl)urea]
90 | CCCC(CCC)NC(=O)Nc1ccc(C)cc1Cl [Example C20, 1-(2-chloro-4-methylphenyl)-3-(heptan-4-yl)urea]
110 | CCCC(CCC)NC(=O)Nc1ccc(OC)cc1Cl [Example C21, 1-(2-chloro-4-methoxyphenyl)-3-(heptan-4-yl)urea]
180 | CCCC(CCC)NC(=O)Nc1ccc(Cl)cc1Cl [Example C22, 1-(2,4-dichlorophenyl)-3-(heptan-4-yl)urea]
380 | Cc1ccc(NC(=O)N[C@@H](C)C(C)C)c(Cl)c1 [Example C23, (S)-1-(2-chloro-4-methylphenyl)-3-(3-methylbutan-2-yl)urea]
480 | CCC(NC(=O)Nc1ccc(C)cc1Cl)c1ccccc1 (stereo not drawn) [Example C24, 1-(2-chloro-4-methylphenyl)-3-(1-phenylpropyl)urea]
480 | CCC(CC(C)C)NC(=O)Nc1ccc2c(c1)OCO2 (stereo not drawn) [Example C25, 1-(benzo[d][1,3]dioxol-5-yl)-3-(5-methylhexan-3-yl)urea]
490 | CCCC(CCC)NC(=O)Nc1ccccc1OC [Example C26, 1-(heptan-4-yl)-3-(2-methoxyphenyl)urea]
540 | CCCC(CCC)NC(=O)Nc1ccc2c(c1)OCO2 [Example C27, 1-(benzo[d][1,3]dioxol-5-yl)-3-(heptan-4-yl)urea]
570 | CCCC(NC(=O)Nc1ccc2c(c1)OCO2)C(C)C (stereo not drawn) [Example C28, 1-(benzo[d][1,3]dioxol-5-yl)-3-(2-methylhexan-3-yl)urea]
790 | CCCC(CCC)NC(=O)Nc1ccc(C)cc1C [Example C29, 1-(2,4-dimethylphenyl)-3-(heptan-4-yl)urea]
790 | C=Cc1ccccc1NC(=O)NC(CCC)CCC [Example C30, 1-(heptan-4-yl)-3-(2-vinylphenyl)urea]

same assay, conditions: Table D, Umami Acrylamides; read-out: Umami EC50

EC50 [nM] | Compound
290 | COc1ccc(/C=C/C(=O)NC(C(C)C)C(C)C)cc1 [Example D1, (E)-N-(2,4-dimethylpentan-3-yl)-3-(4-methoxyphenyl)acrylamide]
320 | COC(=O)[C@@H](CC(C)C)NC(=O)/C=C/c1ccc(OC)cc1 [Example D2, (R,E)-methyl 2-(3-(4-methoxyphenyl)acrylamido)-4-methylpentanoate]
630 | CCCCC(NC(=O)/C=C/c1ccc(OC)cc1)C(=O)OC (stereo not drawn) [Example D3, (E)-methyl 2-(3-(4-methoxyphenyl)acrylamido)hexanoate]
690 | CC(CCc1ccccc1)NC(=O)/C=C/c1cccs1 (stereo not drawn) [Example D4, N-(1-Methyl-3-phenyl-propyl)-3-thiophen-2-yl-acrylamide]
720 | CCCC(CCC)NC(=O)/C=C/c1ccc(OC)cc1 [Example D5, (E)-N-(heptan-4-yl)-3-(4-methoxyphenyl)acrylamide]
750 | CCCC(CCC)NC(=O)/C=C/c1cccs1 [Example D6, N-(1-Propyl-butyl)-3-thiophen-2-yl-acrylamide]
820 | CCC(CC)NC(=O)/C=C/c1ccc(OC)cc1 [Example D7, (E)-3-(4-methoxyphenyl)-N-(pentan-3-yl)acrylamide]
940 | CCOc1ccc(/C=C/C(=O)N[C@@H](COC)CC(C)C)cc1 [Example D8, (R,E)-3-(4-ethoxyphenyl)-N-(1-methoxy-4-methylpentan-2-yl)acrylamide]
980 | CCC/C=C\C(=O)NC(CCC)CCC [Example D9, (Z)-N-(heptan-4-yl)hex-2-enamide]
1090 | COC(=O)[C@@H](CC(C)C)NC(=O)/C=C/c1ccsc1 [Example D10, (R,E)-methyl 4-methyl-2-(3-(thiophen-3-yl)acrylamido)pentanoate]
1170 | COC(=O)[C@@H](CC(C)C)NC(=O)/C=C/c1ccccc1 [Example D11, (R)-methyl 2-cinnamamido-4-methylpentanoate]
1280 | CC(C)/C=C/C(=O)NC1CCCCC1C (stereo not drawn) [Example D12, (E)-4-methyl-N-(2-methylcyclohexyl)pent-2-enamide]
1310 | CCOc1ccc(/C=C/C(=O)NC(C)CC)cc1 (stereo not drawn) [Example D13, (E)-N-sec-butyl-3-(4-ethoxyphenyl)acrylamide]
1430 | CCC(COC)NC(=O)/C=C/c1ccc(OC)cc1 (stereo not drawn) [Example D14, (E)-N-(1-methoxybutan-2-yl)-3-(4-methoxyphenyl)acrylamide]
1540 | CCCC(CCC)NC(=O)/C=C/c1ccsc1 [Example D15, (E)-N-(heptan-4-yl)-3-(thiophen-3-yl)acrylamide]
